PubChem BioAssay AID1963853 (Molecular Pharmacology Branch, DTP, NCI, 2024)

System: 266295-075-R-J1-PDC spheroid viability
Assay: Anticancer human tumor 266295-075-R-J1-PDC patient-derived head and neck squamous carcinoma cell line growth inhibition [POLQ]
Conditions: spheroids with HUVEC and MSC; for IC50: curve of first compound; for viability, T/C: stronger effect = lower value; active = viability on the fitted dose curve at most 10% of control; inactive = the rest
Method in brief: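 Three-cell-type spheroids modelling solid tumor plus stroma served as the readout system; POL inhibitors were tested individually and in combination, concentration ranges set by clinical Cmax where known.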

[1] = second compound 0.0316 µM, first compound 0.00316 µM
[2] = second compound 0.0316 µM, first compound 0.01 µM
[3] = second compound 0.0316 µM, first compound 0.0316 µM
[4] = second compound 0.0316 µM, first compound 0.1 µM
[5] = second compound 0.1 µM, first compound 0.00316 µM
[6] = second compound 0.1 µM, first compound 0.01 µM
[7] = second compound 0.1 µM, first compound 0.0316 µM
[8] = second compound 0.1 µM, first compound 0.1 µM
[9] = second compound 0.316 µM, first compound 0.00316 µM
[10] = second compound 0.316 µM, first compound 0.01 µM
[11] = second compound 0.316 µM, first compound 0.0316 µM
[12] = second compound 0.316 µM, first compound 0.1 µM
[13] = second compound 1 µM, first compound 0.00316 µM
[14] = second compound 1 µM, first compound 0.01 µM
[15] = second compound 1 µM, first compound 0.0316 µM
[16] = second compound 1 µM, first compound 0.1 µM
[17] = second compound 3.16 µM, first compound 0.00316 µM
[18] = second compound 3.16 µM, first compound 0.01 µM
[19] = second compound 3.16 µM, first compound 0.0316 µM
[20] = second compound 3.16 µM, first compound 0.1 µM
[21] = second compound 10 µM, first compound 0.00316 µM
[22] = second compound 10 µM, first compound 0.01 µM
[23] = second compound 10 µM, first compound 0.0316 µM
[24] = second compound 10 µM, first compound 0.1 µM
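Note: spheroids exposed to compounds for seven days before readout.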

C=CCn1c(=O)c2cnc(Nc3ccc(N4CCN(C)CC4)cc3)nc2n1-c1cccc(C(C)(C)O)n1 + COC1C(OC(N)=O)C(O)C(Oc2ccc3c(O)c(NC(=O)c4ccc(O)c(CC=C(C)C)c4)c(=O)oc3c2C)OC1(C)C
inactive: viability, T/C [1] 106% | viability, T/C [2] 111% | viability, T/C [3] 103% | viability, T/C [4] 102% | viability, T/C (second compound 0.0316 µM, first compound 0.316 µM) 91.4% | viability, T/C (second compound 0.0316 µM, first compound 1 µM) 65.5% | viability, T/C [5] 112% | viability, T/C [6] 94.6% | viability, T/C [7] 82.5% | viability, T/C [8] 82.7% | viability, T/C (second compound 0.1 µM, first compound 0.316 µM) 77.2% | viability, T/C (second compound 0.1 µM, first compound 1 µM) 95.6% | viability, T/C [9] 102% | viability, T/C [10] 93.8% | viability, T/C [11] 95% | viability, T/C [12] 104% | viability, T/C (second compound 0.316 µM, first compound 0.316 µM) 87.4% | viability, T/C (second compound 0.316 µM, first compound 1 µM) 70.6% | viability, T/C [13] 97.1% | viability, T/C [14] 85.9% | viability, T/C [15] 92% | viability, T/C [16] 95.8% | viability, T/C (second compound 1 µM, first compound 0.316 µM) 91.3% | viability, T/C (second compound 1 µM, first compound 1 µM) 66.3% | viability, T/C [17] 96% | viability, T/C [18] 90.8% | viability, T/C [19] 96.7% | viability, T/C [20] 98.3% | viability, T/C (second compound 3.16 µM, first compound 0.316 µM) 88.6% | viability, T/C (second compound 3.16 µM, first compound 1 µM) 65.3% | viability, T/C [21] 104% | viability, T/C [22] 88.9% | viability, T/C [23] 102% | viability, T/C [24] 87.2% | viability, T/C (second compound 10 µM, first compound 0.316 µM) 87% | viability, T/C (second compound 10 µM, first compound 1 µM) 73.4%
> 1000 nM: IC50 (second compound 0.0316 µM) | IC50 (second compound 0.1 µM) | IC50 (second compound 0.316 µM) | IC50 (second compound 1 µM) | IC50 (second compound 3.16 µM) | IC50 (second compound 10 µM)

CC[C@@]1(O)C(=O)OCc2c1cc1n(c2=O)Cc2cc3c(CN(C)C)c(O)ccc3nc2-1 + COC1C(OC(N)=O)C(O)C(Oc2ccc3c(O)c(NC(=O)c4ccc(O)c(CC=C(C)C)c4)c(=O)oc3c2C)OC1(C)C
> 100 nM: IC50 (second compound 0.0316 µM) | IC50 (second compound 0.1 µM) | IC50 (second compound 0.316 µM) | IC50 (second compound 1 µM) | IC50 (second compound 3.16 µM) | IC50 (second compound 10 µM)
inactive: viability, T/C (second compound 0.0316 µM, first compound 0.000316 µM) 84.1% | viability, T/C (second compound 0.0316 µM, first compound 0.001 µM) 99.8% | viability, T/C [1] 84.9% | viability, T/C [2] 96.9% | viability, T/C [3] 89.4% | viability, T/C [4] 104% | viability, T/C (second compound 0.1 µM, first compound 0.000316 µM) 87.2% | viability, T/C (second compound 0.1 µM, first compound 0.001 µM) 87.7% | viability, T/C [5] 90.5% | viability, T/C [6] 100% | viability, T/C [7] 103% | viability, T/C [8] 88% | viability, T/C (second compound 0.316 µM, first compound 0.000316 µM) 102% | viability, T/C (second compound 0.316 µM, first compound 0.001 µM) 85.4% | viability, T/C [9] 75.8% | viability, T/C [10] 98.2% | viability, T/C [11] 89.4% | viability, T/C [12] 89.1% | viability, T/C (second compound 1 µM, first compound 0.000316 µM) 99% | viability, T/C (second compound 1 µM, first compound 0.001 µM) 90.8% | viability, T/C [13] 109% | viability, T/C [14] 89.2% | viability, T/C [15] 114% | viability, T/C [16] 100% | viability, T/C (second compound 3.16 µM, first compound 0.000316 µM) 114% | viability, T/C (second compound 3.16 µM, first compound 0.001 µM) 97% | viability, T/C [17] 85.3% | viability, T/C [18] 91.2% | viability, T/C [19] 88.3% | viability, T/C [20] 96.9% | viability, T/C (second compound 10 µM, first compound 0.000316 µM) 95.8% | viability, T/C (second compound 10 µM, first compound 0.001 µM) 98.5% | viability, T/C [21] 97.8% | viability, T/C [22] 107% | viability, T/C [23] 95.4% | viability, T/C [24] 94.5%
